Reference: patent publication US20210386750A1, “METHODS AND MATERIALS FOR TREATING CANCER” (Mayo Foundation for Medical Education and Research, priority 2018, published 2021)
“Also recorded” adds a separate entry of the source.

Legend:
PEA1 cells = experiment: Clonogenic (colony formation) assay in PEA1 cells; conditions: PEA1, BRCA1 siRNAs, colony formation 8-10 days (FIG. 4B, 14, 22B)
Experimental: OVCAR-8 (A) and PEA1 (B) cells were transfected with control luciferase (Luc) or BRCA1 siRNAs. 48 hours later, the cells were trypsinized, plated in 6-well plates, and subjected to colony formation assays. The indicated concentrations of ceritinib was added 12 hours after plating.

OVCAR-8 cells = experiment: Clonogenic (colony formation) assay in OVCAR-8 cells; conditions: for Sensitivity of BRCA1-depleted cells to the agent versus control luciferase siRNA cells: OVCAR-8, BRCA1 siRNAs, colony formation 8-10 days (FIG. 4A, 14, 22A); for Sensitization to the agent by NNMT overexpression: OVCAR-8 clones stably expressing Myc-DDK-NNMT versus empty vector, 8-10 days (FIG. 16, 24)
Experimental: A portion of the cells used in A and C were subjected to colony formation assays using olaparib, a PARP inhibitor (as a positive control for HR deficiency).
(A-C) OVCAR-8 and PEA1 cells were transfected with control luciferase (siLuc) or BRCA1 siRNAs. 48 hours later, the cells were trypsinized, immunoblotted for BRCA1 and HSP90 (bottom panels), and subjected to colony formation assays.
The cells were cultured for 8-10 days to allow colony formation.

[1] = test system: HCT-116 colon cancer cells; experiment: Colony formation assay in HCT-116 colon cancer clones (empty vector or Myc-DDK-NNMT); format: cell-based; conditions: HCT-116 Myc-NNMT clones #4, #8, #22 versus empty vector, 8-10 days, n=1 (FIG. 26)
Experimental: Clones of HCT-116 colon cancer cells stably transfected with empty vector (pcDNA3) or the Myc-DDK-NNMT expression plasmid (Myc-NNMT Clone #4, #8, #22) were plated as single cells, allowed to adhere for 12 hours, and then treated with ceritinib. […] Data are means±SEM from triplicate wells, n=1 experiment.
Clonogenic assays were performed as described elsewhere (see, e.g., Wagner et al., Mol. Pharmacol., 76:208-14 (2009)).

Row | SMILES | Sensitivity of BRCA1-depleted cells to the agent versus control luciferase siRNA cells (PEA1 cells) | Sensitivity of BRCA1-depleted cells to the agent versus control luciferase siRNA cells (OVCAR-8 cells) | Sensitization to the agent by NNMT overexpression [1] | Sensitization to the agent by NNMT overexpression (OVCAR-8 cells) | Sensitization to the agent by depletion of BRCA2 or RAD51 (OVCAR-8 cells; OVCAR-8, BRCA2 or RAD51 siRNAs (FIG. 12B, 12D, 15))
1 | O=C(Oc1cccc(F)c1OC(=O)c1cccc(O)c1)c1cccc(O)c1 [WZB117] | sensitized | sensitized | – | – | –
2 | Cc1cc(Nc2ncc(Cl)c(Nc3ccccc3S(=O)(=O)C(C)C)n2)c(OC(C)C)cc1C1CCNCC1 [ceritinib] | sensitizes | sensitizes | sensitizes | sensitizes | –
3 | CN(C)c1cc(NC(=O)CNC(C)(C)C)c(O)c2c1C[C@H]1C[C@H]3[C@H](N(C)C)C(O)=C(C(N)=O)C(=O)[C@@]3(O)C(O)=C1C2=O [tigecycline] | sensitized | sensitized | – | sensitizes | –
4 | O=C(c1cc(Cc2n[nH]c(=O)c3ccccc23)ccc1F)N1CCN(C(=O)C2CC2)CC1 [olaparib] | – | – | – | – | increased sensitivity; also recorded: did sensitize
